# Source: article PMC5833756, “A novel ruthenium complex with xanthoxylin induces S-phase arrest and causes ERK1/2-mediated apoptosis in HepG2 cells through a p53-independent pathway” (Cell Death & Disease, 2018)
# Where “and” joins values, the source holds several entries; their conditions need not be identical. Identical values can stand only once.
# Experiments:
# HT-29 = assay type: cell-based, human; settings: HT-29 (human colon adenocarcinoma), 72 h
# HepG2 = assay type: cell-based, human; settings: HepG2 (human hepatocellular carcinoma), monolayer, 72 h
# SCC-25 = assay type: cell-based, human; settings: SCC-25 (human oral squamous cell carcinoma), 72 h
# ACP-03 = assay type: cell-based, human
# MRC-5 = assay type: cell-based; settings: MRC-5 (human lung fibroblast, non-cancer), 72 h
# WT SV40 MEF = assay type: cell-based, mouse; settings: 72 h
# BAD KO SV40 MEF = assay type: cell-based, mouse; settings: 72 h
# HepG2 cells = assay: Gene expression analysis by qPCR array (TaqMan Array Human Molecular Mechanisms of Cancer); assay type: cell-based; settings: HepG2, 12 h; RCX 12 µM, DOX 2 µM
# Experimental: HepG2 cells were plated in bottles for cell culture (7 × 10^4 cells/mL). […] The RNA was evaluated by fluorimetry using QuBit (Life Technologies; Camarillo, CA, USA). RNA reverse transcription was performed using a Superscript VILO™ Kit (Invitrogen Corporation; Waltham, MA, USA). A 96-well plate TaqMan® Array Human Molecular Mechanisms of Cancer (ID 4418806, Applied Biosystems^TM, Foster City, CA, USA) was used for the gene expression study by qPCR. The reactions were conducted in an ABI ViiA7 system (Applied Biosystems^TM; Foster City, CA, USA). The cycle conditions comprised 2 min at 50 °C, 20 s at 95 °C, then 40 cycles of 3 s at 95 °C and 30 s at 60 °C. The relative quantification (RQ) of mRNA expression was calculated by the 2^-ΔΔCT method[40] using Gene Expression Suite™ Software (Applied Biosystems^TM), and the cells treated with the negative control (0.2% DMSO) were used as a calibrator. The reactions were normalized by the geometric mean of the RQ of the reference genes GAPDH, 18S and HPRT1. All experiments were performed in DNase/RNase-free conditions.
smiles,measurement,setting,value
"COc1cc([O-])c(C(C)=O)c(OC)c1.F[P-](F)(F)(F)(F)F.[Ru+2].c1cnc2c(c1)ccc1cccnc12.c1cnc2c(c1)ccc1cccnc12 [RCX, cis-[Ru(phen)2(xant)](PF6)]",IC50,HT-29,3.4 µM
same,IC50,HepG2,13.5 µM
same,IC50,SCC-25,6.5 µM
same,selectivity index (SI),ACP-03,0.2
same,IC50,"ACP-03; ACP-03 (human gastric adenocarcinoma), 72 h",26 µM
same,IC50,MRC-5,21.3 µM
same,IC50,WT SV40 MEF,3.9 µM
same,IC50,BAD KO SV40 MEF,4.1 µM
same,RQ ABL1 gene expression,HepG2 cells,1.908
same,RQ AKT1 gene expression,HepG2 cells,1.685
same,RQ AKT2 gene expression,HepG2 cells,2.7 and 2.697
same,RQ APC gene expression,HepG2 cells,1.106
same,RQ BAX gene expression,HepG2 cells,0.887
same,RQ BCAR1 gene expression,HepG2 cells,2.9 and 2.846
same,RQ BCL2L1 gene expression,HepG2 cells,0.898
same,RQ BCL2L11 gene expression,HepG2 cells,9.8 and 9.786
same,RQ BCL2 gene expression,HepG2 cells,2.4 and 2.377
same,RQ BID gene expression,HepG2 cells,1.477
same,RQ BRAF gene expression,HepG2 cells,2.3 and 2.296
same,RQ CASP8 gene expression,HepG2 cells,1.493
same,RQ CCND1 gene expression,HepG2 cells,4.8 and 4.752
same,RQ CCND3 gene expression,HepG2 cells,2.4 and 2.397
same,RQ CCNE1 gene expression,HepG2 cells,0.674
same,RQ CDC42 gene expression,HepG2 cells,4.2 and 4.147
same,RQ CDH1 gene expression,HepG2 cells,1.051
same,RQ CDK2 gene expression,HepG2 cells,1.251
same,RQ CDK4 gene expression,HepG2 cells,2.7 and 2.737
same,RQ CDKN1A gene expression,HepG2 cells,0.628
same,RQ CDKN1B gene expression,HepG2 cells,0.5 and 0.543
same,RQ CDKN2A gene expression,HepG2 cells,3.8 and 3.836
same,RQ CRK gene expression,HepG2 cells,6.2 and 6.172
same,RQ CTNNB1 gene expression,HepG2 cells,1.930
same,RQ CYCS gene expression,HepG2 cells,1.927
same,RQ DVL1 gene expression,HepG2 cells,2.7 and 2.712
same,RQ E2F1 gene expression,HepG2 cells,7.1 and 7.081
same,RQ EGFR gene expression,HepG2 cells,2.0 and 1.985
same,RQ ELK1 gene expression,HepG2 cells,5.2 and 5.179
same,RQ ERBB2 gene expression,HepG2 cells,2.2 and 2.186
same,RQ FADD gene expression,HepG2 cells,1.854
same,RQ FAS gene expression,HepG2 cells,2.9 and 2.845
same,RQ FGF2 gene expression,HepG2 cells,5.5 and 5.503
same,RQ FOS gene expression,HepG2 cells,1.472
same,RQ FYN gene expression,HepG2 cells,2.2 and 2.240
same,RQ FZD1 gene expression,HepG2 cells,4.8 and 4.807
same,RQ GRB2 gene expression,HepG2 cells,0.855
same,RQ GSK3B gene expression,HepG2 cells,0.999
same,RQ HRAS gene expression,HepG2 cells,2.1 and 2.071
same,RQ IGF1R gene expression,HepG2 cells,1.052
same,RQ ITGA2B gene expression,HepG2 cells,5.4 and 5.437
same,RQ ITGAV gene expression,HepG2 cells,1.126
same,RQ ITGB1 gene expression,HepG2 cells,1.547
same,RQ ITGB3 gene expression,HepG2 cells,1.478
same,RQ JUN gene expression,HepG2 cells,4.5 and 4.475
same,RQ KRAS gene expression,HepG2 cells,4.8 and 4.786
same,RQ MAP2K1 gene expression,HepG2 cells,2.6 and 2.591
same,RQ MAP3K5 gene expression,HepG2 cells,1.752
same,RQ MAPK1 gene expression,HepG2 cells,2.1 and 2.124
same,RQ MAPK3 gene expression,HepG2 cells,1.762
same,RQ MAPK8 gene expression,HepG2 cells,1.293
same,RQ MAPK14 gene expression,HepG2 cells,3.0 and 3.025
same,RQ MDM2 gene expression,HepG2 cells,3.2 and 3.153
same,RQ MYC gene expression,HepG2 cells,4.3 and 4.304
same,RQ NFKB1 gene expression,HepG2 cells,2.2 and 2.156
same,RQ NFKB2 gene expression,HepG2 cells,3.6 and 3.621
same,RQ NFKBIA gene expression,HepG2 cells,1.342
same,RQ NRAS gene expression,HepG2 cells,1.862
same,RQ PIK3CA gene expression,HepG2 cells,1.265
same,RQ PIK3R1 gene expression,HepG2 cells,1.408
same,RQ PTEN gene expression,HepG2 cells,0.644
same,RQ PTK2B gene expression,HepG2 cells,0.803
same,RQ PTK2 gene expression,HepG2 cells,2.0 and 2.034
same,RQ RAC1 gene expression,HepG2 cells,1.199
same,RQ RAF1 gene expression,HepG2 cells,4.7 and 4.645
same,RQ RB1 gene expression,HepG2 cells,0.795
same,RQ RELA gene expression,HepG2 cells,2.4 and 2.403
same,RQ RHOA gene expression,HepG2 cells,1.541
same,RQ SHC1 gene expression,HepG2 cells,3.7 and 3.702
same,RQ SMAD4 gene expression,HepG2 cells,3.6 and 3.549
same,RQ SOS1 gene expression,HepG2 cells,5.0 and 4.992
same,RQ SRC gene expression,HepG2 cells,1.833
same,RQ TCF3 gene expression,HepG2 cells,3.2 and 3.166
same,RQ TGFB1 gene expression,HepG2 cells,1.267
same,RQ TGFBR1 gene expression,HepG2 cells,1.352
same,RQ TGFBR2 gene expression,HepG2 cells,1.069
same,RQ TP53 gene expression,HepG2 cells,0.5 and 0.471
same,RQ VEGFA gene expression,HepG2 cells,3.8 and 3.759
